From patent publication US11186589B2, “Cyanoindoline derivatives as NIK inhibitors” (Janssen Pharmaceutica NV, priority 2016, dated 2021) come the findings set out here.

For assay [1], the target named is NIK/MAP3K14 (Homo sapiens (Human), UniProt Q99558). The assay can be described thus: Inhibition of auto-phosphorylation of recombinant human NF-kappaB-inducing kinase (NIK/MAP3K14) activity (AlphaScreen). It is filed as biochemical. The note with it: averaged values over all measurements on all batches, 25 microM ATP. Put shortly: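 GST-tagged NIK (0.2 nM) auto-phosphorylation was run with 25 microM ATP in pH 7.5 Tris buffer with MgCl2 for 1 h at 25 °C. It was detected by AlphaScreen with anti-phospho-IKK Ser176/180 antibody. IC50 came from sigmoidal fits of blank-subtracted % inhibition versus log concentration.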
Sequence of NIK/MAP3K14 (Q99558 whole entry): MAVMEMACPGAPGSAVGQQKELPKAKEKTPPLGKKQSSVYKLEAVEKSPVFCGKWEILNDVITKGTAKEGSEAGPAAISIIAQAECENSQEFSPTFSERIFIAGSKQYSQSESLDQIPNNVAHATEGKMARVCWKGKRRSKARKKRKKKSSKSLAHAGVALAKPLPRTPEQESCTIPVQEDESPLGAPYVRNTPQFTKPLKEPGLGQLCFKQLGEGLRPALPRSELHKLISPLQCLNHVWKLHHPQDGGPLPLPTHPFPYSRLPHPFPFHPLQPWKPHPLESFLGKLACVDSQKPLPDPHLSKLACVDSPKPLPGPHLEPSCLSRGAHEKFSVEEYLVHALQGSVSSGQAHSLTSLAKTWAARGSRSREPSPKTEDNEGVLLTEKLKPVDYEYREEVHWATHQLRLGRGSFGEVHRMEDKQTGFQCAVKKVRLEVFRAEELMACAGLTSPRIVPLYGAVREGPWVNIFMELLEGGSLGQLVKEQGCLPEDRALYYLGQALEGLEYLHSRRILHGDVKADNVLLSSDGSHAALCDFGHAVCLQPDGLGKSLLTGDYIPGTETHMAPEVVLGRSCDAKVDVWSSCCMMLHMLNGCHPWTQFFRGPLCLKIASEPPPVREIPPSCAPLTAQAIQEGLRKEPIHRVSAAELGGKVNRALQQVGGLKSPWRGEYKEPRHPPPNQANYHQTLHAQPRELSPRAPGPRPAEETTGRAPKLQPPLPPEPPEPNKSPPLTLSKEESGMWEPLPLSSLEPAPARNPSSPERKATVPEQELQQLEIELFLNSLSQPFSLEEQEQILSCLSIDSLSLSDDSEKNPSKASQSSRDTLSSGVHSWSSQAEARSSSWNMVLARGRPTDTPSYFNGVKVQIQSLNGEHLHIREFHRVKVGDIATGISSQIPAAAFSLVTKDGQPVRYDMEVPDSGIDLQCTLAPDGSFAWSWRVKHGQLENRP
For orientation: Alpha assays give light when donor and acceptor beads are brought close together.

Assay [2] deals with P-IKKα levels in L363 cells. The experiment in a line: Effect of compounds on P-IKKα levels in L363 (NIK translocated multiple myeloma) cells. The following applies: 2 hr treatment, averaged values, read-out: Inhibition of pIKKα_L-363 (IC50 (nM)). It is filed as cell-based, human. Put shortly:
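L363 cells pre-incubated 24 hr with BAFF, then compound (8-point 1:3 dilutions, 1% DMSO) for 2 hr at 37 °C. P-IKKα in lysates read by sandwich immunoassay; blank with 10 μM ADS125117 subtracted, IC50 from sigmoidal fit of % inhibition of control.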

For assay [3], the system named is JJN-3 cells. The experiment in a line: Antiproliferative activity on JJN-3 (NIK translocated) multiple myeloma cells (CellTiter-Glo). The assay is classed as cell-based, human. The note with it: JJN-3 (NIK translocated) cells, 96 hr treatment, averaged values, read-out: JJN-3 Proliferation inhibition (IC50 (nM)). In outline:
(§1)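 Cells in RPMI 1640 with 2 mM L-glutamine and 10% FCS, treated 96 hr at 37 °C with 9-point 1:3 dilution series, 0.3% DMSO final. Viability read by CellTiter-Glo luminescence, mean of 2 wells. Time-zero blank subtracted; growth expressed as % of untreated control.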
Background: In ATP-based viability assays light output follows the ATP content of the culture.

The subject of assay [4] is KMS12-BM cells. The experiment in a line: Antiproliferative activity on KMS12-BM (NIK WT) multiple myeloma cells (CellTiter-Glo). It is filed as cell-based, human. The following applies: 96 hr treatment, averaged values, read-out: KMS-12 Proliferation inhibition (IC50 (nM)). Put shortly: as §1

Like-named read-outs stand apart in the source and are kept apart here.

For `CC(C)CN1CCn2ncc(Nc3nccc(-c4cc(C#N)c5c(c4)[C@@](C)(CO)CN5)n3)c2C1=O` [Compound 27b], the IC50 was 4.47 nM in assay [1]; 13 nM in assay [2] (Homo sapiens, L-363, 2 h); 1580 nM in assay [3] (Homo sapiens, JJN-3, 96 h); more than 10000 nM in assay [4] (Homo sapiens, KMS-12-BM, 96 h).

As to `CN1CCc2cc(Nc3nccc(-c4cc(C#N)c5c(c4)[C@@](C)(CO)CN5)n3)ccc2C1` [Compound 30], the IC50 in assay [1] stood at 0.8 nM; in assay [2] (Homo sapiens, L-363, 2 h), 2 nM; in assay [3] (Homo sapiens, JJN-3, 96 h), 4 nM; in assay [4] (Homo sapiens, KMS-12-BM, 96 h) it was 10 nM.

With `CN(C)C1COc2c(cc(Cl)cc2Nc2nccc(-c3cc(C#N)c4c(c3)[C@@](C)(CO)CN4)n2)C1` (stereo partly drawn) [Compound 18], the IC50 in assay [1] was 4.1 nM; in assay [2] (Homo sapiens, L-363, 2 h) it was 16 nM; in assay [3], 1 nM; in assay [4] it was 9 nM.

As to `CC1CCn2ncc(Nc3nccc(-c4cc(C#N)c5c(c4)[C@@](C)(CO)CN5)n3)c2O1` (single isomer, unassigned) [Compound 2b], the IC50 in assay [1] was 2 nM; in assay [2], 4 nM; in assay [3] it was 93 nM; in assay [4], more than 10000 nM.

Turning to `COc1nc2c(cc1Nc1nccc(-c3cc(C#N)c4c(c3)[C@@](C)(CO)CN4)n1)COCC2` [Compound 25], the IC50 in assay [1] is 1.7 nM; in assay [2] (Homo sapiens, L-363, 2 h), 10 nM; in assay [3] (Homo sapiens, JJN-3, 96 h), 174 nM; in assay [4] (Homo sapiens, KMS-12-BM, 96 h), more than 10000 nM.

Take `CNC(=O)CCn1ccc2c(Nc3nccc(-c4cc(C#N)c5c(c4)C(C)(C)CN5)n3)cc(Cl)cc21` [Compound 1c]: the IC50 in assay [1] came to 30.2 nM; in assay [2] (Homo sapiens, L-363, 2 h), 23 nM; in assay [3] (Homo sapiens, JJN-3, 96 h) it was 26 nM; in assay [4] (Homo sapiens, KMS-12-BM, 96 h), 1380 nM.
